Test results taken from PubChem BioAssay AID179 (DTP/NCI, 2004).
Several values for one entry are separate records, joined by “and”; a condition that tells them apart may be missing. Identical values can stand only once. Activity calls are given as the source filed them.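 Rule for the calls: active = compounds giving half or more protection of infected cells from virus-caused growth loss, again on retest; inactive = the rest.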

System: CEM cells HIV-1 protection, formazan growth assay
Assay: NCI AIDS Antiviral Assay
Settings: for IC50: measured here: growth of uninfected CEM cells
Procedure, shortened: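 Five concentrations of each compound were applied to infected and uninfected human CEM cells. Protection from HIV-1 was judged from growth measured with a soluble formazan assay.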

Structure (SMILES) | EC50 [µM] | IC50 | outcome
CC(C)NC(=O)OCc1c(COC(=O)NC(C)C)n(C)c2c1ccc1sccc12 | > 200 | 2.14 µM | –
O[C@@H]1[C@H]2CC(OCc3ccccc3)C[C@H]2C[C@@H]1O (some centres undefined) | > 1000 | > 1000 µM | –
CC(NC(=O)C(C)C(=O)NCc1ccc(C(F)(F)F)cc1)C(N)=O (centres undefined) | > 200 | 115 µM | –
O=C(O)C1(CC(CCCN2CCCCC2)c2ccccc2)CCCC1 (centres undefined) | > 200 | 191 µM | –
COC(=O)C(=O)C(C(=O)C(=O)Nc1cccc(OC)c1)c1nc2ccc(Cl)cc2[nH]c1=O (centres undefined) | > 204 | 191 µM | –
c1ccc(C2=C(c3ccccc3)C23SCCS3)cc1 | > 200 | 33.9 µM | –
COc1c(O)ccc2oc3cccc(O)c3c(=O)c12 | > 200 | 110 µM | –
CC(=O)OC1CC[C@@]2(C)C(C1)CC(OC(C)=O)[C@@H]1C2CC(OC(C)=O)[C@]2(C)C(C(C)CC=C(c3ccc(Cl)cc3)c3ccc(Cl)cc3)CCC12 (some centres undefined) | > 200 | 57.5 µM | –
COC1=CC(=O)O/C1=C(\OC)C1OC1c1ccccc1 (centres undefined) | 5.37 | 97.7 µM | –
CN(C)CCCCN1c2ccccc2Sc2cc(N=[N+]=[N-])ccc21 | > 200 | 2.45 µM | –
Cc1ccc2nc3nc(C)c(C)nc3nc2c1 | 1.15 | 14.5 µM | –
COc1ccc(C2ON(c3cccc(C)n3)CC=C2C)cc1 (centres undefined) | > 45.7 | > 45.7 µM | –
O=c1ccnc(SSc2nccc(=O)[nH]2)[nH]1 | > 200 | > 200 µM | –
O=C(O)C(=Cc1ccc(-c2ccc([N+](=O)[O-])cc2)o1)C(=O)O | > 200 | > 200 µM | –
O=c1[nH]cnc2cc3c(cc12)nc1n3CCOC1 | > 52.5 | > 52.5 µM | –
CCN(CC)C(=S)N=N/C(C)=C1/C=CC=CN1O | > 200 | 1.1 µM | –
N#Cc1c2nc3ccccc3nc2n2ccc3ccccc3c12 | > 200 | > 200 µM | –
CCn1c(C)nc([N+](=O)[O-])c1Sc1ncc[nH]1 | > 977 | 17.8 µM | –
O=S(=O)(Cc1ccccc1)SCc1ccccc1 | > 79.4 | 6.31 µM | –
Cc1ccnc(NS(=O)(=O)c2ccc(NC(=O)c3ccc4nc5ccccc5c(Nc5ccc(S(=O)(=O)Nc6nccc(C)n6)cc5)c4c3)cc2)n1 | > 200 | 83.2 µM | –
COc1cc(C(=O)n2c3ccc(Br)cc3c3nc4ccccc4nc32)cc(OC)c1OC | > 50.1 | > 50.1 µM | –

Structure (SMILES) | EC50 [µM] | IC50 | outcome
COc1cc2ccccc2cc/c1=N\O | > 200 | 41.7 µM | –
COc1ccccc1-n1c(C)nc2ccccc2c1=O | > 186 | > 186 µM | –
COC(=O)[C@@H](NS(=O)(=O)CC12CCC(CC1)C2(C)C)C(C)(C)C | > 200 | > 200 µM | –
O=c1[nH]c2ccc(C(F)(F)F)cc2nc1Cc1ccccc1 | > 200 | 74.1 µM | –
COc1ccc(C(=O)C(C(=O)C(=O)Nc2nccs2)c2ccc(OC)cc2)cc1 (centres undefined) | > 63.1 | > 63.1 µM | –
CCCCCCCCCCCCCCCC(=O)Nc1ccn(C2CCC(COP(=O)(O)OCC3OC(n4ccc(NC(=O)CCCCCCCCCCCCCCC)nc4=O)CC3OP(=O)(O)OCC3OC(n4ccc(NC(=O)CCCCCCCCCCCCCCC)nc4=O)CS3)O2)c(=O)n1 (centres undefined) | 1.1 | 83.2 µM | –
Nc1ccc(SSc2ccc(N)cc2)cc1 | > 200 | 25.1 µM and 29.5 µM | –
CCCCCC/C=[N+](/[O-])CC1OC(n2ccc(=O)[nH]c2=O)C(O[Si](C)(C)C(C)(C)C)C1O[Si](C)(C)C(C)(C)C (centres undefined) | > 200 | 6.76 µM | –
O=C1CSC(c2ccccc2O)N1c1ccc(-c2ccc(-n3c(-c4ccccc4)nc4ccccc4c3=O)cc2)cc1 (centres undefined) | > 200 | 12 µM | –
Cc1nc2nn(C)cc2c(=O)n1/N=C/c1ccccc1 | > 200 | > 200 µM | –
CC(C)(C)C1(C#N)C(=O)N(c2ccc(N3C(=O)C(C#N)(C(C)(C)C)C34c3ccccc3-c3ccccc34)cc2)C12c1ccccc1-c1ccccc12 (centres undefined) | > 372 | 107 µM | –
c1ccc2[nH]c(SSSSc3nc4ccccc4[nH]3)nc2c1 | > 200 | > 200 µM | –
COCCCNC(=O)C1C(=O)C(=O)N(CCCOC)C1=O (centres undefined) | – | – | inactive
CC(=O)Oc1cc2c(n(C)c1=O)-c1ccccc1C2 | > 200 | 6.61 µM | –
N#Cc1c(O)c(C=Nc2ccc(Cl)cc2)c(=O)n2c1[nH]c1ccccc12 | > 100 | > 100 µM | –
Nc1ccccc1S(=O)(=O)c1ccccc1 | – | – | active
CCOP(=O)(OCC)/C(C#N)=C/c1cccc(F)c1 | > 331 | > 331 µM | –
NC(=S)/N=C/C1=C(O)CCCC1=O | > 200 | > 200 µM | –
CC(C)N1CNC(=O)C12CCN(CC1COc3ccccc3O1)CC2 (centres undefined) | > 200 | > 200 µM | –
O=C(O)CCNS(=O)(=O)c1ccc([N+](=O)[O-])cc1 | – | – | inactive
